Reference: patent US9493506B2 (Enanta Pharmaceuticals, Inc., priority 2010, dated 2016)

Experiments:
Format in all cases: cell-based, hepatitis C virus (genotype 1a-H77)
[1] = test system: HCV replicon with a D168V mutation in a 1a-H77 background; assay: transient replicon assay, D168V mutation in 1a-H77 background; conditions: Hepatitis C virus, read-out: EC50 in a transient replicon assay with a D168V mutation in a 1a-H77 background
Method: (§1) Replicon cell lines can be maintained in Dulbecco's modified Eagles medium (DMEM) containing 100 IU/ml penicillin, […] streptomycin (Invitrogen), […] G418 (Invitrogen) and 10% (v/v) fetal bovine serum (FBS). Replicon-containing cells can be seeded into 96 well plates at a density of 5000 cells per well in 100 μl DMEM containing 5% FBS. The next day, the compound can be initially diluted in dimethyl sulfoxide (DMSO) to generate a 200× stock of the inhibitor in a series of 8 half-log dilutions. The dilution series can then be diluted 100-fold in the medium containing 5% FBS. One hundred microliters of medium with the inhibitor can be added to each well of the overnight cell culture plate already containing 100 μl of DMEM with 5% FBS. In assays where the protein binding effect on inhibitor potency is assessed, the medium from the overnight cell culture plates can be replaced with 200 μl DMEM containing 40% human plasma (Innovative Research) plus 5% FBS as well as compound. The cells can be grown for 4 days in tissue culture incubators. The inhibitory effects of compounds against the replicons can be determined by measuring either the level of luciferase or HCV RNA. The luciferase assay can be conducted using a Luciferase Assay System kit (Promega) following the manufacturer's instructions. Briefly, the cell culture medium is removed and wells are washed with 200 μl of phosphate-buffered saline. To each well Passive Lysis buffer (Promega, Wis.) is added and the plates are incubated for 30 min with rocking to lyse the cells. Luciferin solution (50 μl, Promega) is added, and luciferase activity is measured with a Victor II luminometer (Perkin-Elmer). To determine HCV RNA levels, RNA extractions can be performed using the CellsDirect kit (Invitrogen), and the HCV RNA copy number can be measured using the SuperScript III Platinum One-Step qRT-PCR system (Invitrogen) and primers specific to the HCV 5′ nontranslated region. Cytotoxicity can be determined by the 3-[4,5-dimethylhiazol-2-yl]-2,5-diphenyltetrazolium bromide (MTT) colorimetric assay as follows. Replicon cells is plated in 96-well plates (4000 cells per well), the next day compound dilutions are added as in the activity assay, and the cells are grown in the presence of the inhibitors for 4 days. The MTT solution is diluted in DMEM containing 5% FBS and 60 μl of the solution is added to the cells. After 4 hrs, the cells are solubilized by the addition of 30 […]μl SDS (20% in 0.02 N HCl). The plates are incubated overnight and the optical density can be measured at 570 nm. To determine compounds' EC50 and TD50, luciferase, RNA inhibition and MTT data can be analyzed using the GraphPad Prism 4 software (equation: sigmoidal dose-response—variable slope).
(§2) The 1a-H77 replicon for transient assays further differs from the replicon in the stable cell line in that it contains NS2 through NS5B in the second cistron. The 1b-N strain replicon contains NS3 through NS5B in the second cistron, with adaptive mutations E1202G in NS3 and S2204I in NS5A. Mutagenesis can be performed using the Stratagene QuikChange XL II site-directed mutagenesis kit. Mutants' sequences can be confirmed, plasmids can be linearized with Xba I restriction enzyme and used as template for in vitro transcription reactions to make mutant replicon RNA for transient transfections. In vitro transcription can be performed with the T7 Megascript kit (Ambion).
(§3) Transient replicon transfections can be performed essentially as described by Mo et al. (Antimicrob Agents Chemother (2005) 49(10):4305-4314) with slight modifications. Fifteen micrograms of template RNA can be used to electroporate 3×10^6 cells in a 200 μl volume in a 0.2 cm cuvette. The cells used for transient transfections can be Huh7 cells obtained by curing replicon-containing cells with IFN (Mo et al., supra). Electroporation can be done with a Gene Pulser II (Bio-Rad, CA) at 480V and 25 μF, using two manual pulses. […]

[2] = test system: HCV replicon with a D168E mutation in a 1a-H77 background; assay: transient replicon assay, D168E mutation in 1a-H77 background; conditions: Hepatitis C virus, read-out: EC50 in a transient replicon assay with a D168E mutation in a 1a-H77 background
Method: as §1, §2, §3

[3] = test system: HCV replicon with a R155K mutation in a 1a-H77 background; assay: transient replicon assay, R155K mutation in 1a-H77 background; conditions: Hepatitis C virus, read-out: EC50 in a transient replicon assay with a R155K mutation in a 1a-H77 background
Method: as §1, §2, §3

Cc1nc2ccc(F)cc2nc1O[C@@H]1C[C@H]2C(=O)N[C@]3(C(=O)NS(=O)(=O)C4CC4)C[C@H]3/C=C\CCCCC[C@H](NC(=O)c3noc(C)c3C)C(=O)N2C1 [Example 21, N-((2R,6S,13aS,14aR,16aS,Z)-14a-(cyclopropylsulfonylcarbamoyl)-2-(7-fluoro-3-methylquinoxalin-2-yloxy)-5,16-dioxo-1,2,3,5,6,7,8,9,10,11,13a,14,14a,15,16,16a-hexadecahydrocyclopropa[e]pyrrolo[1,2-a][1,4]diazacyclopentadecin-6-yl)-4,5-dimethylisoxazole-3-carboxamide]
EC50 [1]: < 25 nM
EC50 [2]: < 3 nM
EC50 [3]: < 1 nM

Cc1nc2ccc(F)cc2nc1O[C@@H]1C[C@H]2C(=O)N[C@]3(C(=O)NS(=O)(=O)C4(C)CC4)C[C@H]3/C=C\CCCCC[C@H](NC(=O)c3noc(C)c3C)C(=O)N2C1 [Example 24, N-((2R,6S,13aS,14aR,16aS,Z)-2-(7-fluoro-3-methylquinoxalin-2-yloxy)-14a-(1-methylcyclopropylsulfonylcarbamoyl)-5,16-dioxo-1,2,3,5,6,7,8,9,10,11,13a,14,14a,15,16,16a-hexadecahydrocyclopropa[e]pyrrolo[1,2-a][1,4]diazacyclopentadecin-6-yl)-4,5-dimethylisoxazole-3-carboxamide]
EC50 [1]: < 25 nM
EC50 [2]: < 3 nM
EC50 [3]: < 1 nM

Cc1nc2cccc(F)c2nc1O[C@@H]1C[C@H]2C(=O)N[C@]3(C(=O)NS(=O)(=O)C4CC4)C[C@H]3/C=C\CCCCC[C@H](NC(=O)OC(C)(C)C)C(=O)N2C1 [Example 54, tert-butyl (2R,6S,13aS,14aR,16aS,Z)-14a-(cyclopropylsulfonylcarbamoyl)-2-(8-fluoro-3-methylquinoxalin-2-yloxy)-5,16-dioxo-1,2,3,5,6,7,8,9,10,11,13a,14,14a,15,16,16a-hexadecahydrocyclopropa[e]pyrrolo[1,2-a][1,4]diazacyclopentadecin-6-ylcarbamate]
EC50 [1]: 50 to 250 nM
EC50 [2]: 20 to 50 nM
EC50 [3]: 1 to 10 nM

Cc1nc2cccc(F)c2nc1O[C@@H]1C[C@H]2C(=O)N[C@]3(C(=O)NS(=O)(=O)C4CC4)C[C@H]3/C=C\CCCCC[C@H](NC(=O)c3ccon3)C(=O)N2C1 [Example 55, N-((2R,6S,13aS,14aR,16aS,Z)-14a-(cyclopropylsulfonylcarbamoyl)-2-(8-fluoro-3-methylquinoxalin-2-yloxy)-5,16-dioxo-1,2,3,5,6,7,8,9,10,11,13a,14,14a,15,16,16a-hexadecahydrocyclopropa[e]pyrrolo[1,2-a][1,4]diazacyclopentadecin-6-yl)isoxazole-3-carboxamide]
EC50 [1]: 50 to 250 nM
EC50 [2]: 20 to 50 nM
EC50 [3]: 1 to 10 nM

Cc1nc2cccc(F)c2nc1O[C@@H]1C[C@H]2C(=O)N[C@]3(C(=O)NS(=O)(=O)C4CC4)C[C@H]3/C=C\CCCCC[C@H](NC(=O)c3noc(C)c3C)C(=O)N2C1 [Example 57, N-((2R,6S,13aS,14aR,16aS,Z)-14a-(cyclopropylsulfonylcarbamoyl)-2-(8-fluoro-3-methylquinoxalin-2-yloxy)-5,16-dioxo-1,2,3,5,6,7,8,9,10,11,13a,14,14a,15,16,16a-hexadecahydrocyclopropa[e]pyrrolo[1,2-a][1,4]diazacyclopentadecin-6-yl)-4,5-dimethylisoxazole-3-carboxamide]
EC50 [1]: < 25 nM
EC50 [2]: 3 to 20 nM
EC50 [3]: < 1 nM

Cc1cc(C(=O)N[C@H]2CCCCC/C=C\[C@@H]3C[C@@]3(C(=O)NS(=O)(=O)C3(C)CC3)NC(=O)[C@@H]3C[C@@H](Oc4nc5c(F)cccc5nc4C)CN3C2=O)no1 [Example 58, N-((2R,6S,13aS,14aR,16aS,Z)-2-(8-fluoro-3-methylquinoxalin-2-yloxy)-14a-(1-methylcyclopropylsulfonylcarbamoyl)-5,16-dioxo-1,2,3,5,6,7,8,9,10,11,13a,14,14a,15,16,16a-hexadecahydrocyclopropa[e]pyrrolo[1,2-a][1,4]diazacyclopentadecin-6-yl)-5-methylisoxazole-3-carboxamide]
EC50 [1]: < 25 nM
EC50 [2]: 3 to 20 nM
EC50 [3]: < 1 nM

Cc1cc(C(=O)N[C@H]2CCCCC/C=C\[C@@H]3C[C@@]3(C(=O)NS(=O)(=O)C3CC3)NC(=O)[C@@H]3C[C@@H](Oc4nc5cc(F)cc(Br)c5nc4C)CN3C2=O)no1 [Example 98, N-((2R,6S,13aS,14aR,16aS,Z)-2-(5-bromo-7-fluoro-3-methylquinoxalin-2-yloxy)-14a-(cyclopropylsulfonylcarbamoyl)-5,16-dioxo-1,2,3,5,6,7,8,9,10,11,13a,14,14a,15,16,16a-hexadecahydrocyclopropa[e]pyrrolo[1,2-a][1,4]diazacyclopentadecin-6-yl)-5-methylisoxazole-3-carboxamide]
EC50 [1]: < 25 nM
EC50 [2]: 3 to 20 nM
EC50 [3]: 1 to 10 nM

Cc1nc2c(Br)cc(F)cc2nc1O[C@@H]1C[C@H]2C(=O)N[C@]3(C(=O)NS(=O)(=O)C4(C)CC4)C[C@H]3/C=C\CCCCC[C@H](NC(=O)c3ccon3)C(=O)N2C1 [Example 100, N-((2R,6S,13aS,14aR,16aS,Z)-2-(5-bromo-7-fluoro-3-methylquinoxalin-2-yloxy)-14a-(1-methylcyclopropylsulfonylcarbamoyl)-5,16-dioxo-1,2,3,5,6,7,8,9,10,11,13a,14,14a,15,16,16a-hexadecahydrocyclopropa[e]pyrrolo[1,2-a][1,4]diazacyclopentadecin-6-yl)isoxazole-3-carboxamide]
EC50 [1]: < 25 nM
EC50 [2]: 3 to 20 nM
EC50 [3]: < 1 nM

Cc1nc2c(Br)cc(F)cc2nc1O[C@@H]1C[C@H]2C(=O)N[C@]3(C(=O)NS(=O)(=O)C4(C)CC4)C[C@H]3/C=C\CCCCC[C@H](NC(=O)c3noc(C)c3C)C(=O)N2C1 [Example 102, N-((2R,6S,13aS,14aR,16aS,Z)-2-(5-bromo-7-fluoro-3-methylquinoxalin-2-yloxy)-14a-(1-methylcyclopropylsulfonylcarbamoyl)-5,16-dioxo-1,2,3,5,6,7,8,9,10,11,13a,14,14a,15,16,16a-hexadecahydrocyclopropa[e]pyrrolo[1,2-a][1,4]diazacyclopentadecin-6-yl)-4,5-dimethylisoxazole-3-carboxamide]
EC50 [1]: < 25 nM
EC50 [2]: 3 to 20 nM
EC50 [3]: < 1 nM

CC(C)(C)OC(=O)N[C@H]1CCCCC/C=C\[C@@H]2C[C@@]2(C(=O)NS(=O)(=O)C2CC2)NC(=O)[C@@H]2C[C@@H](Oc3nc4cc(F)ccc4nc3C(F)(F)F)CN2C1=O [Example 106, tert-butyl (2R,6S,13aS,14aR,16aS,Z)-14a-(cyclopropylsulfonylcarbamoyl)-2-(7-fluoro-3-(trifluoromethyl)quinoxalin-2-yloxy)-5,16-dioxo-1,2,3,5,6,7,8,9,10,11,13a,14,14a,15,16,16a-hexadecahydrocyclopropa[e]pyrrolo[1,2-a][1,4]diazacyclopentadecin-6-ylcarbamate]
EC50 [1]: 50 to 250 nM
EC50 [2]: 3 to 20 nM
EC50 [3]: < 1 nM
